What was measured:
Assay type in all cases: in vivo
[1] = system: yellow fever mosquito (Aedes aegypti); assay: whole plant or invertebrate; details: 48 h, larval mortality visually assessed after 2 days, read-out: mortality in comparison with untreated controls
Description: For evaluating control of yellow fever mosquito (Aedes aegypti) the test unit consisted of 96-well-microtiter plates containing 200 μl of tap water per well and 5-15 freshly hatched A. aegypti larvae.
The active compounds or mixtures were formulated using a solution containing 75% (v/v) water and 25% (v/v) DMSO. Different concentrations of formulated compounds or mixtures were sprayed onto the insect diet at 2.5 μl, using a custom built micro atomizer, at two replications. For experimental mixtures in these tests identical volumes of both mixing partners at the desired concentrations respectively, were mixed together.
After application, microtiter plates were incubated at 28±1° C., 80±5% RH for 2 days. Larval mortality was then visually assessed.

[2] = system: Orchid Thrips (Dichromothrips corbetti); assay: Action on orchid thrips, floral-immersion technique; details: adult thrips, 72 hours after treatment, read-out: mortality in comparison with untreated controls
Description: Dichromothrips corbetti adults used for bioassay were obtained from a colony maintained continuously under laboratory conditions. For testing purposes, the test compound is diluted in a 1:1 mixture of acetone:water (vol:vol), plus Kinetic® HV at a rate of 0.01% v/v.
Thrips potency of each compound was evaluated by using a floral-immersion technique. All petals of individual, intact orchid flowers were dipped into treatment solution and allowed to dry in Petri dishes. Treated petals were placed into individual re-sealable plastic along with about 20 adult thrips. All test arenas were held under continuous light and a temperature of about 28° C. for duration of the assay. After 3 days, the numbers of live thrips were counted on each petal. The percent mortality was recorded 72 hours after treatment.

[3] = system: boll weevil (Anthonomus grandis); assay: Action on boll weevil, eggs on insect diet in 96-well microtiter plates; details: 120 h, egg and larval mortality after 5 days, read-out: mortality in comparison with untreated controls
Description: For evaluating control of boll weevil (Anthonomus grandis) the test unit consisted of 96-well-microtiter plates containing an insect diet and 5-10 A. grandis eggs.
The compounds were formulated using a solution containing 75% (v/v) water and 25% (v/v) DMSO. Different concentrations of formulated compounds were sprayed onto the insect diet at 5 μl, using a custom built micro atomizer, at two replications.
After application, microtiter plates were incubated at about 25+1° C. and about 75+5% relative humidity for 5 days. Egg and larval mortality was then visually assessed.

[4] = system: Silverleaf Whitefly (Bemisia argentifoli) (Adults); assay: Action on silverleaf whitefly adults, sprayed cotton plants; details: Bemisia argentifolii, 72 h, 3 days after treatment, read-out: mortality in comparison with untreated controls
Description: (§1) The active compounds were formulated by a Tecan liquid handler in 100% cyclohexanone as a 10,000 ppm solution supplied in tubes. The 10,000 ppm solution was serially diluted in 100% cyclohexanone to make interim solutions. These served as stock solutions for which final dilutions were made by the Tecan in 50% acetone:50% water (v/v) into 5 or 10 ml glass vials. A nonionic surfactant (Kinetic®) was included in the solution at a volume of 0.01% (v/v). The vials were then inserted into an automated electrostatic sprayer equipped with an atomizing nozzle for application to plants/insects.
Cotton plants at the cotyledon stage (one plant per pot) were sprayed by an automated electrostatic plant sprayer equipped with an atomizing spray nozzle. The plants were dried in the sprayer fume hood and then removed from the sprayer. Each pot was placed into a plastic cup and about 10 to 12 whitefly adults (approximately 3-5 days old) were introduced. The insects were collected using an aspirator and a nontoxic Tygon® tubing connected to a barrier pipette tip. The tip, containing the collected insects, was then gently inserted into the soil containing the treated plant, allowing insects to crawl out of the tip to reach the foliage for feeding. Cups were covered with a reusable screened lid. Test plants were maintained in a growth room at about 25° C. and about 20-40% relative humidity for 3 days, avoiding direct exposure to fluorescent light (24 hour photoperiod) to prevent trapping of heat inside the cup. Mortality was assessed 3 days after treatment, compared to untreated control plants.

[5] = system: tobacco budworm (Heliothis virescens); assay: Action on tobacco budworm, eggs on insect diet in 96-well microtiter plates; details: 120 h, egg and larval mortality after 5 days, read-out: mortality in comparison with untreated controls
Description: For evaluating control of tobacco budworm (Heliothis virescens) the test unit consisted of 96-well-microtiter plates containing an insect diet and 15-25 H. virescens eggs.
The compounds were formulated using a solution containing 75% v/v water and 25% v/v DMSO. Different concentrations of formulated compounds were sprayed onto the insect diet at 10 μl, using a custom built micro atomizer, at two replications.
After application, microtiter plates were incubated at about 28+1° C. and about 80+5% relative humidity for 5 days. Egg and larval mortality was then visually assessed.

[6] = system: Diamond Back Moth (Plutella xylostella); assay: Action on diamond back moth, cabbage leaf dip; details: foliar, 3rd instar larvae, 72 hours after treatment, read-out: mortality in comparison with untreated controls
Description: The active compound is dissolved at the desired concentration in a mixture of 1:1 (v/v) distilled water:acetone. Surfactant (Kinetic® HV) is added at a rate of 0.01% (v/v). The test solution is prepared at the day of use.
Leaves of cabbage were dipped in test solution and air-dried. Treated leaves were placed in petri dishes lined with moist filter paper and inoculated with ten 3rd instar larvae. Mortality was recorded 72 hours after treatment. Feeding damages were also recorded using a scale of 0-100%.

[7] = system: Southern Armyworm (Spodoptera eridania), 2nd Instar Larvae; assay: Action on southern armyworm, sprayed lima bean plants; details: 96 h, 2nd instar larvae on lima bean, 4 days after treatment, read-out: mortality in comparison with untreated controls
Description: as §1, with “into 10” for “into 5”, “or 20” for “or 10”
Lima bean plants (variety Sieva) were grown 2 plants to a pot and selected for treatment at the 1st true leaf stage. Test solutions were sprayed onto the foliage by an automated electrostatic plant sprayer equipped with an atomizing spray nozzle. The plants were dried in the sprayer fume hood and then removed from the sprayer. Each pot was placed into perforated plastic bags with a zip closure. About 10 to 11 armyworm larvae were placed into the bag and the bags zipped closed. Test plants were maintained in a growth room at about 25° C. and about 20-40% relative humidity for 4 days, avoiding direct exposure to fluorescent light (24 hour photoperiod) to prevent trapping of heat inside the bags. Mortality and reduced feeding were assessed 4 days after treatment, compared to untreated control plants.

Structure (SMILES) | mortality at 800 ppm [1] [%] | mortality at 500 ppm [2] [%] | mortality at 800 ppm [3] [%] | mortality at 300 ppm [4] [%] | mortality at 800 ppm [5] [%] | mortality at 500 ppm [6] [%] | mortality at 300 ppm [7] [%]
CSC(=N/N=C/c1ccc2c(C(=N)Nc3ccc(OC(F)(F)F)cc3)nn(C)c2c1)Nc1ccccc1C(C)C [Example C-35, 1-(2-isopropylphenyl)-2-methyl-3-[(E)-[1-methyl-3-[N-[4-(trifluoromethoxy)phenyl]carbamimidoyl]indazol-6-yl]methyleneamino]isothiourea] | ≥ 50 | ≥ 75 | ≥ 75 | ≥ 75 | ≥ 75 | ≥ 75 | ≥ 75
CC(C)c1ccccc1NC(=S)N/N=C/c1ccc2c(C(=N)Nc3ccc(OC(F)(F)F)cc3)nn(C)c2c1 [Example C-1, 1-(2-isopropylphenyl)-3-[(E)-[1-methyl-3-[N-[4(trifluoromethoxy)phenyl]carbamimidoyl]indazol-6-yl]methyleneamino]thiourea] | ≥ 50 | ≥ 75 | ≥ 75 | ≥ 75 | ≥ 75 | ≥ 75 | ≥ 75
CC(C)c1ccccc1N1C(=O)CS/C1=N\N=C\c1ccc2c(NC(=N)c3ccc(OC(F)(F)F)cc3)nn(C)c2c1 [Example C-39, N-[6-[(E)-[(Z)-[3-(2-isopropylphenyl)-4-oxo-thiazolidin-2-ylidene]hydrazono]methyl]-1-methyl-indazol-3-yl]-4-(trifluoromethoxy)benzamidine] | ≥ 50 | ≥ 75 | ≥ 75 | ≥ 75 | ≥ 75 | ≥ 75 | ≥ 75
CC(C)c1ccccc1N1C(=O)CS/C1=N/N=C/c1ccc2c(C(=N)Nc3ccc(OC(F)(F)F)cc3)nn(C)c2c1 [Example C-2, 6-[(E)-[(E)-[3-(2-isopropylphenyl)-4-oxo-thiazolidin-2-ylidene]hydrazono]methyl]-1-methyl-N-[4-(trifluoromethoxy)phenyl]indazole-3-carboxamidine] | ≥ 50 | ≥ 75 | ≥ 75 | ≥ 75 | ≥ 75 | ≥ 75 | ≥ 75
CC(C)c1ccccc1NC(=S)N/N=C/c1ccc2c(NC(=N)c3ccc(OC(F)(F)F)cc3)nn(C)c2c1 [Example C-38, 1-(2-isopropylphenyl)-3-[(E)-[1-methyl-3-[[4-(trifluoromethoxy)benzenecarboximidoyl]amino]indazol-6-yl]methyleneamino]thiourea] | ≥ 50 | ≥ 75 | ≥ 75 | ≥ 75 | ≥ 75 | ≥ 75 | ≥ 75
CC(C)c1ccccc1/N=C1\SCC(=O)N1/N=C/c1ccc2c(C(N)=Nc3ccc(OC(F)(F)F)cc3)nsc2c1 [Example C-28, 6-[(E)-[(2Z)-2-(2-isopropylphenyl)imino-4-oxo-thiazolidin-3-yl]iminomethyl]-N′-[4-(trifluoromethoxy)phenyl]-1,2-benzothiazole-3-carboxamidine] | ≥ 50 | ≥ 75 | ≥ 75 | ≥ 75 | ≥ 75 | ≥ 75 | ≥ 75
